Reference: patent US12582626B2, “Methods and compositions for treating cancer” (The Wistar Institute of Anatomy and Biology, priority 2016, dated 2026)

What was measured:
activated CD8+ T cells = test: In vitro stimulation of CD8+ T cells and drug treatments (flow cytometry, intracellular cytokine staining); format: cell-based, mouse
Experimental: Enriched CD8+ T cells were activated for 4 days in 6-well plates pre-coated with antibodies to CD3 (5 μg/ml) and CD28 (5 μg/mL) (BD Bioscience). For some samples, cells were transferred for the last 16 hours to a hypoxia chamber. To study the impact of hypoxia on relatively resting CD8+ T cells, enriched CD8+ T cells were stimulated for 48 hours under normoxia. Cells were then removed from the plates, washed and replated in fresh medium with 100 U/ml human IL-2 for 96 hours, followed by culture in normoxia or hypoxia with IL-2 for another 36 hours before analysis. Cells were cultured in Roswell Park Memorial Institute (RPMI) medium without Glu (Life Technologies) supplemented with Glu (10 mM) or Gal (10 mM), 10% dialyzed FBS (Life Technologies), 20 mM HEPES, 2 mM Glutamax, 1 mM sodium pyruvate, 0.05 mM 2-mercaptoethanol and 1% penicillin-streptomycin. Hypoxia experiments were performed in a Thermo Napco series 8000WJ CO2 incubator equipped with nitrogen tank for O2 replacement. O2 level was kept at 1% during CD8+ T cells hypoxia culture for time periods indicated in each assay. In all assays cell viability was assessed before staining. […] Drugs and corresponding vehicle controls were added as follows: 2-deoxy-D-glucose (2-DG, 2 mM, Sigma) or Fenofibrate (FF, 50 μM, Sigma) for the entire culture period; Etomoxir (Eto, 200 μM, Sigma) for the last 48 hours. DMSO concentrations were kept below 0.2% for all culture conditions.
CD8^+ T cells from spleens of naive C57Bl/6 mice were purified by negative selection using magnetic beads (MACS, STEMCELL Technologies). Enriched CD8^+ T cells were activated for 4 days in 6-well plates pre-coated with antibodies to CD3 (5 μg/ml) and CD28 (5 μg/mL) (BD Bioscience). For some samples, cells were transferred for the last 16 hours to a hypoxia chamber. To study the impact of hypoxia on resting CD8^+ T cells, purified enriched CD8^+ T cells were stimulated for 48 hours under normoxia. Cells were then washed off the plates and replated in fresh medium with 100 U/ml human IL-2 for 96 hours, followed by culture in normoxia or hypoxia with IL-2 for another 36 hours before analysis. Cells were cultured in Roswell Park Memorial Institute (RPMI) medium without Glu (Life Technologies) supplemented with Glu (10 mM) or Gal (10 mM), 10% dialyzed FBS (Life Technologies), 20 mM HEPES, 2 mM Glutamax, 1 mM sodium pyruvate, 0.05 mM 2-mercaptoethanol and 1% penicillin-streptomycin. Hypoxia experiments were performed in a Thermo Napco series 8000WJ CO2 incubator equipped with nitrogen tank for O2 replacement. O2 level was kept at 1% during CD8^+ T cells hypoxia culture for time periods indicated in each assay. Drugs and corresponding vehicle controls were added as follows: 2-deoxy-D-glucose (2-DG, 2 mM, Sigma) or Fenofibrate (FF, 50 μM, Sigma) for the entire culture period; Etomoxir (Eto, 200 μM, Sigma), Amidepsine A (AmA, 20 μM, Santa Cruz), or Orlistat (OS, 100 μM, Sigma) for the last 48 hours. DMSO concentrations were kept below 0.2% for all culture conditions.
For mitochondrial metabolic markers analysis, cells were stained with Mitosox Red (5 μM, MROS) and DioC6 (40 nM, MMP) (Life Technologies) at 37° C. for 30 minutes under either normoxia or hypoxia (for in vitro samples cultured prior to staining under hypoxia). For fatty acid uptake experiments, cells stimulated under different conditions in vitro or isolated from spleen and tumors of mice bearing 2 weeks or 1 month-old tumors were immediately incubated with 1 μM BODIPY FL C16 (Life tech) for 30 mins at 37° C. Cells were washed twice with cold PBS before surface staining. For Cpt1a staining, cells were stained for surface markers first followed by permeabilization with transcription factor buffer set (BD Pharmingen, San Diego, CA). Cells were stained with anti-Cpt1a antibody or mouse IgG2b isotype control antibody (abcam) at 5 μg/ml in 1× permwash for 45 mins at 4° C. […]

CD8+ T cells = test: Extracellular flux analysis (OCR, ECAR) of stimulated CD8+ T cells; format: cell-based, mouse; conditions: for Basal OCR: OS 100 μM or AmA 20 μM, Glu or Gal media, short-term hypoxia
Experimental: OCR and ECAR for CD8^+ T cells stimulated under different conditions were measured with XF24 and XF96 Extracellular Flux Analyzers (Seahorse Bioscience) following the manufacturer's instructions. Hypoxia samples were prepared in a hypoxia chamber under 1% O2. Dead cells were removed by dead cell removal kit using MACS and live cells were pre-incubated with 100 μM cobalt chloride before being removed from the hypoxia chamber and entered into the Seahorse analyzer. In experiments to determine the contribution of fatty acid oxidation (FAO) to OCR, 200 μM ETO was added 15 minutes before the Seahorse analysis. Briefly after repeated measures of basal respiration and lactate production, 1 μM OM was added to measure ATP leakage by OCR and glycolytic capacity by ECAR. 1.5 μM FCCP was then added to measure maximal respiration by OCR followed by addition of 100 nM Rotenone and 1 μM Antimycin A (AmA) to determine spare respiratory capacity by OCR and then 100 mM 2-DG to determine glycolytic reserve by ECAR.

[1] = test system: vaccine-induced CD8+ T cells; test: FF treatment of vaccinated donor mice, splenic CD8+ T cells analysed before transfer; format: in vivo, mouse; conditions: samples incubated with Eto
Experimental: For in vivo treatment, fenofibrate (FF; at 100 mg/kg/day, Sigma) was first diluted in dimethylsulfoxide (DMSO) and then further diluted in PBS and given by oral gavage daily for 3 weeks. Control mice received diluent at the same volume. For adoptive transfer experiments, 1×10^7 in vitro activated CD8^+ T cells transduced with lentivectors or splenocytes from vaccinated mice treated with drugs and containing 5×10^4 Trp-1455 tetramer^+CD8^+ T cells per dose were injected intravenously into recipient mice. For FF/control treated splenocytes or wild type/PPAR-α KO splenocytes co-transfer experiments, splenocytes containing 10^5 Trp-1455 tetramer^+CD8^+ T cells from each group were mixed and transferred into CD90.1^+ recipient mice intravenously.
To assess how increased FA catabolism affects CD8+TIL functions, we vaccinated CD90.2+ mice congenic for CD45, and treated them for 3 weeks daily with FF (CD45.1 mice) or diluent (CD45.2 mice). Splenocytes from these mice were mixed at a 1:1 ratio of Trp-1-specific CD8+ T cells from the 2 donors and transferred into CD90.1+ recipient mice, which had been challenged with tumor cells and vaccinated 3 days later. Cells were transferred 2 days after vaccination (FIG. 6A).

SMILES: CCOC(=O)[C@@]1(CCCCCCOc2ccc(Cl)cc2)CO1 [Eto, etomoxir]
- functions and polyfunctionality of CD8+ T cells (activated CD8+ T cells; cultured with limited access to Glu and O2): decreases
- PD-1 expression (activated CD8+ T cells; under hypoxia, FF 50 μM or Eto 200 μM): decreases
- OCR (CD8+ T cells; Eto 200 μM, CD8+ T cells stimulated in Glu or Gal media): decreases
- FF-enhanced OCR of splenocytes [1]: blocked

SMILES: COc1cc(C)c(C(=O)Oc2cc(C)c(C(=O)Oc3cc(C)c(C(=O)NC(C)C(=O)O)c(O)c3)c(O)c2)c(OC)c1 (stereo not shown) [AmA, Amidepsine A]
- functions of T cells (activated CD8+ T cells; Gal media and hypoxia): decrease functions
- PD-1 expression (activated CD8+ T cells; under hypoxia, AmA, Gal medium): decreases
- Basal OCR (CD8+ T cells): decreases

SMILES: CCCCCCCCCCC[C@@H](C[C@@H]1OC(=O)[C@H]1CCCCCC)OC(=O)[C@H](CC(C)C)NC=O [OS, Orlistat]
- PD-1 expression (activated CD8+ T cells; under hypoxia, OS, regardless of other culture conditions): decreases
- Basal OCR (CD8+ T cells): decreases

SMILES: O=CC[C@@H](O)[C@H](O)[C@H](O)CO [2-DG, 2-deoxy-D-glucose]
- PD-1 expression (activated CD8+ T cells; 2-DG compared to cells grown with Glu): more
- O2 consumption rate (OCR) (CD8+ T cells; Glu medium with 2-DG 2 mM): decreases
- OCR/ECAR ratio (CD8+ T cells; Glu medium with 2-DG 2 mM): augments
- extracellular acidification rate (ECAR) (CD8+ T cells; Glu medium with 2-DG 2 mM): declines
